Earlier results on six compounds are cited in US4806659A, “Tannin compounds” (Kabushiki Kaisha Tsumura Juntendo, priority 1985, dated 1989).

For this data set the following is noted: known drugs, schizophrenia.

Consider `OCCN1CCN(CCCN2c3ccccc3Sc3ccc(Cl)cc32)CC1` [perphenazine], for which the “anti-hallucination and -delution effects” value is “strong anti-hallucination and -delution effects”.

For the compound `CN(C)CCCN1c2ccccc2Sc2ccc(Cl)cc21` [chlorpromazine], the sedative effect entry is recorded as “strong sedative effect”.

Regarding `COc1ccc2c(c1)N(C[C@H](C)CN(C)C)c1ccccc1S2` [Levomepromazine], the sedative effect entry is listed as “strong sedative effect”.

As for `CCN1CCCC1CNC(=O)c1cc(S(N)(=O)=O)ccc1OC` (stereo not drawn) [sulpiride], the sedative effect result is on record as “mild sedative effect”.

As to `OCCN1CCN(CCCN2c3ccccc3Sc3ccc(C(F)(F)F)cc32)CC1` [fluphenazine], the “anti-hallucination and -delution effects” value was “strong anti-hallucination and -delution effects”.

Turning to `O=C(CCCN1CCC(O)(c2ccc(Cl)cc2)CC1)c1ccc(F)cc1` [haloperidol], the “anti-hallucination and -delution effects” value is “strong anti-hallucination and -delution effects”.
